Values quoted from earlier work, collected in patent publication US20100048598A1, “TOPICAL COMPOSITIONS COMPRISING 5-ALPHA REDUCTASE INHIBITORS” (priority 2008, published 2010).

Experiments:
[1] = test system: DHT; details: daily oral 1 mg dose
[2] = test system: androgenic alopecia; details: 1 mg/day, treated men
[3] = biological target: T1, type I 5α-reductase (Homo sapiens, UniProt P18405); details: relative to finasteride
T1 sequence (P18405 1-259): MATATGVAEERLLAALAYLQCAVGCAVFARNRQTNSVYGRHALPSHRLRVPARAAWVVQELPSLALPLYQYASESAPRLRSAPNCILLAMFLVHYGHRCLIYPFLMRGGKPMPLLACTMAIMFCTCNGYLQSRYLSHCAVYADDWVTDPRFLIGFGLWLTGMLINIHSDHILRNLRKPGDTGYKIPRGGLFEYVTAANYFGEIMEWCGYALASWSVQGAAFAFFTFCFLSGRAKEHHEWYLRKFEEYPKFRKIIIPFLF

[4] = orally administered
[5] = biological target: T2, type II 5α-reductase (Homo sapiens, UniProt P31213); details: relative to finasteride
T2 sequence (P31213 1-254): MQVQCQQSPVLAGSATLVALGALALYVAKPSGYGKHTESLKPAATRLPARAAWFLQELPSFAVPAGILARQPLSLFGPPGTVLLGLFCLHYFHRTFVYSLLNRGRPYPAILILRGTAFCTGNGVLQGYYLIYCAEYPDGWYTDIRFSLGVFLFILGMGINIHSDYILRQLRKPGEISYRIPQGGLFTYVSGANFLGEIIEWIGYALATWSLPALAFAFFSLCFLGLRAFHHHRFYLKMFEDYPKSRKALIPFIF

SMILES | scalp DHT reduction [1] [%] | serum DHT reduction [1] [%] | progression of hair loss and hair growth compared with control group [2] | potency at inhibiting the type I isoform as compared with finasteride [3] | Absolute bioavailability [4] | Absolute bioavailability, range ([4]; range in brackets) | potency at inhibiting type II 5α-reductase as compared with finasteride [5] | solubility in ethanol (ethanol) | solubility in methanol (methanol) | solubility in polyethylene glycol 400 (polyethylene glycol 400) | solubility in water (water)
CC(C)(C)NC(=O)[C@H]1CC[C@H]2[C@@H]3CC[C@H]4NC(=O)C=C[C@]4(C)[C@H]3CC[C@]12C [Finasteride] | 64 | 68 | slowed the progression of hair loss and increased hair growth | – | – | – | – | – | – | – | –
C[C@]12C=CC(=O)N[C@@H]1CC[C@@H]1[C@@H]2CC[C@]2(C)[C@@H](C(=O)Nc3cc(C(F)(F)F)ccc3C(F)(F)F)CC[C@@H]12 [Dutasteride, (5α,17β)-N-{2,5-bis(trifluoromethyl)phenyl}-3-oxo-4-azaandrost-1-ene-17-carboxamide] | – | – | – | more than 100 times | about 60% | 40%-94% | approximately 3 times | soluble | soluble | soluble | insoluble
